Measured values from BindingDB's records for doi:10.7270/Q2TX3CTT (Broad Institute, 2010).
Counter-ions that a name gives are not always drawn.

Biological target: Glycogen synthase kinase-3 beta (Homo sapiens, UniProt P49841)
Test: GSK3beta kinase inhibitor potency, dose response, biochemical, luminescence, cell-free homogeneous, retest (AID 434954)

Sequence of Glycogen synthase kinase-3 beta (P49841 whole entry): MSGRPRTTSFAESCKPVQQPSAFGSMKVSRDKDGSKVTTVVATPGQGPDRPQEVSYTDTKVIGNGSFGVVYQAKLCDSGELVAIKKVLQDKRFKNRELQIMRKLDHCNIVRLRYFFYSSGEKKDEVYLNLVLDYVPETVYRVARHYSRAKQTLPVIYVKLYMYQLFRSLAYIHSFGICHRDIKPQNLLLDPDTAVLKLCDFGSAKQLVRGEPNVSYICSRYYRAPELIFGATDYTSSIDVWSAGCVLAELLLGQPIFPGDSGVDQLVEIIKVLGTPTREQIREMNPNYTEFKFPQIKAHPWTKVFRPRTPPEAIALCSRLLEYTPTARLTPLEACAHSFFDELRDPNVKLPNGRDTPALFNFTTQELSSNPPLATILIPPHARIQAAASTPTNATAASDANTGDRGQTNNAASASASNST

Structure (SMILES)	EC50 [µM]
CC1(C)CC(=O)C2C(=Nc3ccccc3NC2c2cccs2)C1 (configuration not stated) [9,9-dimethyl-6-thiophen-2-yl-6,8,10,11-tetrahydro-5H-benzo[b][1,4]benzodiazepin-7-one]	> 300
O=C1CCCC2=Nc3ncnn3C(c3cccs3)C12 (configuration not stated) [9-thiophen-2-yl-5,6,7,9-tetrahydro-1H-[1,2,4]triazolo[5,1-b]quinazolin-8-one]	> 300
O=C(Nc1ccccc1)ON=C1c2ccccc2-c2ccccc21 [9H-fluoren-9-one O-(anilinocarbonyl)oxime]	> 300
CC1(C)CC(=O)C2C(=NC3=C(C(=O)c4ccccc43)C2c2ccc(O)cc2)C1 (configuration not stated) [10-(4-hydroxyphenyl)-7,7-dimethyl-5,6,8,10-tetrahydroindeno[1,2-b]quinoline-9,11-dione]	> 300
Nc1ncnc2c1ccn2[C@@H]1O[C@H](CO)[C@@H](O)[C@H]1O ['2-(4-AMINO-PYRROLO[2,3-D]PYRIMIDIN-7-YL)-5-HYDROXYMETHYL-TETRAHYDRO-FURAN-3,4-DIOL]	> 300
NNc1ncnc2c1cnn2-c1ccccc1 [(1-phenylpyrazolo[3,4-d]pyrimidin-4-yl)diazane]	12.8
O=C(COc1ccccc1[N+](=O)[O-])N/N=C/c1ccc[nH]1 [(2-Nitro-phenoxy)-acetic acid [1-(1H-pyrrol-2-yl)-meth-(E)-ylidene]-hydrazide]	> 300
O=C(COc1ccccc1[N+](=O)[O-])NN=Cc1ccccn1 [(2-Nitro-phenoxy)-acetic acid [1-pyridin-2-yl-meth-(E)-ylidene]-hydrazide]	> 300
CN(CC(=O)OCC(=O)Nc1ccccc1)S(=O)(=O)c1ccc(Cl)cc1 [(2-anilino-2-oxoethyl) 2-[(4-chlorophenyl)sulfonyl-methylamino]acetate]	> 300
Cc1nc(Nc2ccccc2)sc1C(=O)c1ccccc1 [(2-anilino-4-methyl-1,3-thiazol-5-yl)(phenyl)methanone]	19.8
CCOC(=O)COC(=O)c1ccc(O)cc1 [(2-ethoxy-2-oxoethyl) 4-hydroxybenzoate]	> 300
O=C1Nc2cc(C(=O)NCCCN3CCCC3)ccc2S/C1=C/c1ccccc1F [(2E)-2-[(2-fluorophenyl)methylidene]-3-oxo-N-(3-pyrrolidin-1-ylpropyl)-4H-1,4-benzothiazine-6-carboxamide]	6.99
O=C1Nc2cc(C(=O)NCCCN3CCOCC3)ccc2S/C1=C/c1ccccc1F [(2E)-2-[(2-fluorophenyl)methylidene]-N-(3-morpholin-4-ylpropyl)-3-oxo-4H-1,4-benzothiazine-6-carboxamide]	18.2
O=C1Nc2cc(C(=O)NCCCN3CCOCC3)ccc2S/C1=C/c1cccc(Cl)c1 [(2E)-2-[(3-chlorophenyl)methylidene]-N-(3-morpholin-4-ylpropyl)-3-oxidanylidene-4H-1,4-benzothiazine-6-carboxamide]	15.1
Cc1cccc(/C=C2/Sc3ccc(C(=O)NCCN4CCCC4)cc3NC2=O)c1 [(2E)-2-[(3-methylphenyl)methylidene]-3-oxidanylidene-N-(2-pyrrolidin-1-ylethyl)-4H-1,4-benzothiazine-6-carboxamide]	6.28
CCN1CCN(CCCNC(=O)c2ccc3c(c2)NC(=O)/C(=C\c2cccc(C)c2)S3)CC1 [(2E)-N-[3-(4-ethyl-1-piperazinyl)propyl]-2-[(3-methylphenyl)methylidene]-3-oxo-4H-1,4-benzothiazine-6-carboxamide]	16.1
CNc1nc2c(N)ncnc2n1[C@H]1O[C@@H](CO)[C@H](O)[C@@H]1O [(2S,3S,4R,5S)-2-[6-amino-8-(methylamino)purin-9-yl]-5-(hydroxymethyl)oxolane-3,4-diol]	> 300
O=C1Nc2cc(C(=O)NCCCN3CCCC3)ccc2S/C1=C\c1ccccc1 [(2Z)-3-oxidanylidene-2-(phenylmethylidene)-N-(3-pyrrolidin-1-ylpropyl)-4H-1,4-benzothiazine-6-carboxamide]	5.9
C[C@H](NC(=O)[C@@H]1CSC2c3ccccc3C(=O)N21)C(=O)NCc1c(F)cccc1Cl (stereo partly drawn) [(3R)-N-[(2S)-1-[(2-chloro-6-fluorophenyl)methylamino]-1-oxopropan-2-yl]-5-oxo-3,9b-dihydro-2H-thiazolo[2,3-a]isoindole-3-carboxamide]	> 300
O=C1Nc2ccccc2C1C=Nc1ccc2c(c1)OCO2 (configuration not stated) [(3Z)-3-[(1,3-benzodioxol-5-ylamino)methylidene]-1H-indol-2-one]	11.4

Second part, the molecule after the results:

EC50 [µM]	Structure (SMILES)
> 300	COc1ccc2c(c1)C(=O)Nc1cc(Cl)ccc1N2 [8-chloro-2-methoxy-5,10-dihydro-11H-dibenzo[b,e][1,4]diazepin-11-one]
> 300	COc1cccc2cc(CC(=O)c3ccccc3)c(=O)oc12 [8-methoxy-3-(2-oxo-2-phenylethyl)-2H-chromen-2-one]
> 300	COc1cccc2cc(C(=O)CS(=O)(=O)c3ccc(C)cc3)c(=O)oc12 [8-methoxy-3-[2-(4-methylphenyl)sulfonylethanoyl]chromen-2-one]
> 300	COc1ccc2c(c1)-c1c(ssc1=S)C(C)(C)N2S(=O)(=O)c1ccc(C)cc1 [8-methoxy-4,4-dimethyl-5-(4-methylphenyl)sulfonyl-[1,2]dithiolo[3,4-c]quinoline-1-thione]
> 300	COc1cccc2cc(C(=O)N(C)C)c(=O)oc12 [8-methoxy-N,N-dimethyl-2-oxo-1-benzopyran-3-carboxamide]
> 300	COc1cccc2cc(C(=O)NCc3ccc(C)cc3)c(=O)oc12 [8-methoxy-N-(4-methylbenzyl)-2-oxo-2H-chromene-3-carboxamide]
> 300	Cc1ccc2c(c1)NC(=O)c1cc([N+](=O)[O-])ccc1O2 [8-methyl-2-nitrodibenzo[b,f][1,4]oxazepin-11(10H)-one]
> 300	Cc1ccc(S(=O)(=O)CC(=O)c2cc3cccc(C)c3oc2=O)cc1 [8-methyl-3-[2-(4-methylphenyl)sulfonyl-1-oxoethyl]-1-benzopyran-2-one]
4.42	COc1cc2c(O)c3c(c(-c4ccc5c(c4)OCO5)c2cc1OC)C(=O)OC3 [9-(1,3-benzodioxol-5-yl)-4-hydroxy-6,7-dimethoxy-3H-benzo[f][2]benzofuran-1-one]
> 300	O=C(Oc1ccc(F)c(F)c1)c1ccc2c(=O)n3c(nc2c1)CCC3 [9-oxo-2,3-dihydro-1H-pyrrolo[2,1-b]quinazoline-6-carboxylic acid (3,4-difluorophenyl) ester]
> 300	COc1ccc(OC)c(C(=O)c2coc3ccc(O)cc23)c1 [(2,5-dimethoxyphenyl)-(5-hydroxy-1-benzofuran-3-yl)methanone]
> 300	COc1ccc(OC)c(C(=O)c2coc3ccc(O)c(CN(C)C)c23)c1 [(2,5-dimethoxyphenyl)-[4-[(dimethylamino)methyl]-5-oxidanyl-1-benzofuran-3-yl]methanone;hydrochloride]
> 300	COC(=O)Cc1ccc2sc(-c3ccccc3)nc2c1 [(2-Phenyl-benzothiazol-5-yl)-acetic acid methyl ester]
16.3	CCN1CCN(CCNC(=O)c2ccc3c(c2)NC(=O)/C(=C\c2ccc(OC)c(OC)c2)S3)CC1 [(2E)-2-[(3,4-dimethoxyphenyl)methylidene]-N-[2-(4-ethylpiperazin-1-yl)ethyl]-3-oxidanylidene-4H-1,4-benzothiazine-6-carboxamide]
60.3	COc1ccc(/C=C2/Sc3ccc(C(=O)NCCCN4CCOCC4)cc3NC2=O)cc1OC [(2E)-2-[(3,4-dimethoxyphenyl)methylidene]-N-[3-(4-morpholinyl)propyl]-3-oxo-4H-1,4-benzothiazine-6-carboxamide]
2.81	COc1cccc(/C=C2/Sc3ccc(C(=O)NCCN4CCCC4)cc3NC2=O)c1 [(2E)-2-[(3-methoxyphenyl)methylidene]-3-oxo-N-(2-pyrrolidin-1-ylethyl)-4H-1,4-benzothiazine-6-carboxamide]
> 300	Cc1cccc(/C=C2/Sc3ccc(C(=O)NCCCN4CCOCC4)cc3NC2=O)c1 [(2E)-2-[(3-methylphenyl)methylidene]-N-(3-morpholin-4-ylpropyl)-3-oxidanylidene-4H-1,4-benzothiazine-6-carboxamide]
> 300	COc1ccc(/C=C2/Sc3ccc(C(=O)NCCN4CCCCCC4)cc3NC2=O)cc1 [(2E)-N-[2-(azepan-1-yl)ethyl]-2-[(4-methoxyphenyl)methylidene]-3-oxo-4H-1,4-benzothiazine-6-carboxamide]
> 300	COc1ccc(/C=C2\Sc3ccc(C(=O)NCCCN4CCCC4)cc3N(C)C2=O)cc1OC [(2Z)-2-[(3,4-dimethoxyphenyl)methylidene]-4-methyl-3-oxo-N-(3-pyrrolidin-1-ylpropyl)-1,4-benzothiazine-6-carboxamide]
> 300	CCN1/C(=C/c2ccc3cccc(C)c3[n+]2CC)Sc2ccccc21 [(2Z)-3-ethyl-2-[(1-ethyl-8-methyl-2-quinolin-1-iumyl)methylidene]-1,3-benzothiazole;iodide]
33.8	COc1ccccc1/C=C/C=C1\Oc2c(ccc(O)c2CN(C)C)C1=O [(2Z)-7-[(dimethylamino)methyl]-6-hydroxy-2-[(E)-3-(2-methoxyphenyl)prop-2-enylidene]-1-benzofuran-3-one]
> 300	COc1ccccc1/C=C/C=C1\Oc2c(ccc(O)c2CN2CCN(CCO)CC2)C1=O [(2Z)-7-[[4-(2-hydroxyethyl)piperazin-1-yl]methyl]-2-[(E)-3-(2-methoxyphenyl)prop-2-enylidene]-6-oxidanyl-1-benzofuran-3-one]
43.3	COc1ccc(/C=C2\Sc3ccc(C(=O)NCCN4CCCCCC4)cc3N(C)C2=O)cc1 [(2Z)-N-[2-(azepan-1-yl)ethyl]-2-[(4-methoxyphenyl)methylidene]-4-methyl-3-oxo-1,4-benzothiazine-6-carboxamide]
> 300	CCOc1ccc(C(=O)NCC(=O)OCc2c(C)noc2C)cc1 [(3,5-dimethyl-1,2-oxazol-4-yl)methyl 2-[(4-ethoxybenzoyl)amino]acetate]
> 300	CCOC(=O)COc1ccc(C(=O)c2ccccc2)c(O)c1 [(4-Benzoyl-3-hydroxy-phenoxy)-acetic acid ethyl ester]
13.4	O=C(c1ccc(Cl)cc1)c1coc2ccc(O)cc12 [(4-Chloro-phenyl)-(5-hydroxy-benzofuran-3-yl)-methanone]
> 300	Cc1ccc(C(=O)c2coc3ccc(O)c(CN(C)C)c23)cc1 [(4-Dimethylaminomethyl-5-hydroxy-benzofuran-3-yl)-p-tolyl-methanone]
